In patent publication US4766127A, “2-(3-pyridylmethyl)naphthalene-6-carboxylic acid as a thromboxane synthetase inhibitor” (Syntex (U.S.A.) Inc., priority 1987, dated 1988):
“And” between values parts separate entries of the source, which are not always exact repeats. Identical values can stand only once.

Legend:
Thromboxane Synthetase = target: T1, Thromboxane Synthetase (Homo sapiens, UniProt P24557); experiment: Inhibition of ADP-induced human platelet aggregation (PRP + pig aortic microsomes) as measure of thromboxane synthetase inhibition; type: cell-based
T1 construct: Human platelet-rich plasma preparation; endogenous in cells; host or cells: human platelets in citrated platelet-rich plasma
T1 sequence (P24557 1-533): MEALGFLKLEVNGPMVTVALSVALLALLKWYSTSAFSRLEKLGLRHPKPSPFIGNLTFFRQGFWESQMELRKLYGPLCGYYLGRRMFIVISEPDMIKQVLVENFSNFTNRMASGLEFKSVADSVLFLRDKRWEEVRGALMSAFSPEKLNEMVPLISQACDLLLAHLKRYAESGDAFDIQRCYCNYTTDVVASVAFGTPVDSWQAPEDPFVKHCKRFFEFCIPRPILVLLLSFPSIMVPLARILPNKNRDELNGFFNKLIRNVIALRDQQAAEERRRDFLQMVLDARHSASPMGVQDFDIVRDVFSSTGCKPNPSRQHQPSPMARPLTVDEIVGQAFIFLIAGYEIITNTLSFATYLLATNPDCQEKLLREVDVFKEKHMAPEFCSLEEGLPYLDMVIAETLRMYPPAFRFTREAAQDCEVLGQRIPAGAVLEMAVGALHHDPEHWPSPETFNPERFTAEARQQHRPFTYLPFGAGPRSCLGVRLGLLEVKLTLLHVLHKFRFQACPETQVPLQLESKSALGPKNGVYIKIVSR
Procedure: Platelet Aggregation Inhibition
Comparison of 2-(3-pyridylmethyl)naphthalene-6-carboxylic acid and 2-(3-pyridylmethyl)naphthalene-7-carboxylic acid.
Platelet Aggregation Inducer: ADP
Determination of Inhibition and Thromboxane Synthetase Activity Utilizing Human Platelet Aggregation
Human platelet-rich plasma preparation:
Blood sample is collected into siliconized vacutainers containing sodium citrate (0.5 ml of 11.25% sodium citrate per 15 ml vacutainer) final concentration 0.38%. Platelet rich plasma (PRP) is obtained after centrifuging the blood for 15 minutes at 200 xg at room temperature. Blood and plasma contacts only non-wettable plastic or siliconized glass surfaces. Procedure:
1. Aggregation is followed by the turbidimetric method of Born (J. Physiol. 162, 67p, 1962), using a Payton Dual Channel Aggregometer.
2. PRP-PAM control. 1.0 ml PRP is used. Pig aortic microsomes (PAM), prepared according to Neichi, et al. (Prostaglandins, 19(4), 577-86 (1980)), are incubated in PRP at 37° C. with stirring for 3 minutes, immediately followed by addition of inducer-ADP. The concentration of PAM is chosen to show little or no inhibition of platelet aggregation when compared with the aggregation of PRP alone.
3. PRP-PAM plus thromboxane synthetase inhibitor.
Thromboxane synthetase inhibitor is added to 1.0 ml PRP incubated at 37° C. with stirring for two minutes. The PAM concentration is chosen according to step 2, and is added to PRP incubated at 37° C. with stirring for another 3 minutes. The inducer ADP is added immediately afterwards.

prostacyclin = conditions: background statement; PGH2 diversion to PGI2 when TxA2 synthesis is blocked; cited from earlier work
[1] = 1 × 10^-4 M, inducer ADP 5×10^-6 M, solvent water
[2] = 1.0 × 10^-7 M, inducer ADP 5×10^-6 M, solvent water
[3] = 2 × 10^-5 M, inducer ADP 5×10^-6 M, solvent water
[4] = 5 × 10^-4 M, inducer ADP 5×10^-6 M, solvent water
[5] = 5.0 × 10^-5 M, inducer ADP 5×10^-6 M, solvent water
[6] = 5 × 10^-6 M, inducer ADP 5×10^-6 M, solvent water
[7] = 5.0 × 10^-7 M, inducer ADP 5×10^-6 M, solvent water

| Structure (SMILES) | % Inhibition (Thromboxane Synthetase; [1]) [%] | inhibition at 100 µM (Thromboxane Synthetase; [1]) [%] | % Inhibition (Thromboxane Synthetase; [2]) [%] | inhibition at 0.1 µM (Thromboxane Synthetase; [2]) [%] | inhibition at 0.01 µM (Thromboxane Synthetase; 1.0 × 10^-8 M, inducer ADP 5×10^-6 M, solvent water) [%] | % Inhibition (Thromboxane Synthetase; [3]) [%] | inhibition at 20 µM (Thromboxane Synthetase; [3]) [%] | % Inhibition (Thromboxane Synthetase; 2 × 10^-7 M, inducer ADP 5×10^-6 M, solvent water) | inhibition at 0.02 µM (Thromboxane Synthetase; 2.0 × 10^-8 M, inducer ADP 5×10^-6 M, solvent water) [%] | % Inhibition (Thromboxane Synthetase; [4]) [%] | inhibition at 500 µM (Thromboxane Synthetase; [4]) [%] | % Inhibition (Thromboxane Synthetase; [5]) [%] | inhibition at 50 µM (Thromboxane Synthetase; [5]) [%] | % Inhibition (Thromboxane Synthetase; [6]) | inhibition at 5 µM (Thromboxane Synthetase; [6]) [%] | % Inhibition (Thromboxane Synthetase; [7]) [%] | inhibition at 0.5 µM (Thromboxane Synthetase; [7]) [%] | greater activity as a thromboxane synthetase inhibitor by a factor (Thromboxane Synthetase; factor relative to 2-(3-pyridylmethyl)-naphthalene-7-carboxylic acid) | IC50 (Thromboxane Synthetase; platelet aggregation inhibition, inducer ADP 5×10^-6 M, solvent water) [µM] | levels of prostacyclin produced (prostacyclin) |
| --- | --- | --- | --- | --- | --- | --- | --- | --- | --- | --- | --- | --- | --- | --- | --- | --- | --- | --- | --- | --- |
| O=C(O)c1ccc2cc(Cc3cccnc3)ccc2c1 [2-(3-pyridylmethyl)naphthalene-6-carboxylic acid] | 85.2 | 98.3 | 29.3 ± 3.7 | 47 ± 5.2 | 4.7 | 97.4 ± 1.3 | 90.9 ± 1.3 | 58.7 ± 9.2% and 97.1 ± 1.9% | 1.6 | 87.3 | 96.6 | 86.5 ± 2.2 | 86.8 ± 1.8 | 100.0% and 85.1 ± 4.1% and 85.3 ± 5.5% | 88.7 ± 3.5 | 75.8 ± 3.5 | 78.3 | about 200 |  |  |
| O=C(O)c1ccc2ccc(Cc3cccnc3)cc2c1 [2-(3-pyridylmethyl)naphthalene-7-carboxylic acid, reference compound] |  | 88.8 |  |  |  |  | 47.9 |  |  |  | 92.8 |  |  |  | 18.2 |  |  |  | 21 |  |
| O=C(O)c1ccc(OCCn2ccnc2)cc1 [dazoxiben] |  |  |  |  |  |  |  |  |  |  |  |  |  |  |  |  |  |  |  | quite low |
